Source: patent US20210393547A1, “USE OF EMODIN IN TREATING RETINAL ISCHEMIA OR A DISEASE, CONDITION, OR DISORDER ASSOCIATED WITH RETINAL ISCHEMIA” (priority 2020, published 2021)

Legend:
[1] = test system: retinal ischemia in Wistar rats; test: Cresyl violet stained retinal thickness after retinal ischemia/reperfusion; format: in vivo, rat; conditions: n=10, mean±SE
Protocol: Emodin was purchased from Sigma-Aldrich (E7881; 90%; storage at 2-8° C.; from Frangula bark; St. Louis, Mo., United States). Drug administration for different procedures, namely ERG, fluorogold RGC labelling, cresyl violet retinal staining and Western blot assays, were described in Tables 3 to 6. Vehicle or emodin (5 μL) was administered via an intravitreous injection route so that these agents were then able to be directly diffused to the target. Emodin was dissolved in vehicle (DMSO:distilled water=1:3). The defined final cellular concentrations of administered drug were 0.25 or 0.5 μM, which were achieved after 40 times dilution from the stock concentrations, namely 10 or 20 μM, based on an arbitrary definition of the vitreous volume as 200 μL. To test a wider range of dose-response, 4 μM of emodin was thus added in the animal experiments. The Vehicle+IR and Emo+IR groups (pre-ischemic administration of emodin 4, 10 or 20 μM) were subjected to following the experimental procedures; these were initial pre-ischemic intravitreous injection (vehicle or emodin), retinal ischemia induction 1 day later, and sacrifice of the animal on the following day to allow the various post-mortem procedures except ERG. In the post-ischemic treatment group, in order to decrease the number of animals used, the present invention only used a single emodin concentration of 20 μM. Furthermore, intravitreous emodin was given 1 day after initial retinal ischemia induction and animals were sacrificed the following day to allow the performance of various post-mortem procedures as mentioned above. The IOP procedure used raised the IOP and was designed to cause retinal ischemia in Wistar rats and simulate ischemic retinal disorders. The rats were anesthetized and constrained with a sterotaxic frame. A 30-gauge needle connected to an elevated saline bottle was attached to anterior chamber of the rat's eye. The pressure exerted by the saline inside the bottle was controlled to 120 mmHg. This procedure was conducted for 1 hour. Successful retinal ischemia induction was confirmed by observing that the whitening of the retina took place. Throughout the experiments, the animals were kept on heat mats to maintain their temperature. The sham procedure involved keeping the pressure in saline bottle 0 mmHg. After the aforementioned sacrifice of rats, the animals underwent intracardial perfusion with normal saline. The eyeballs were then enucleated, fixed with 4% paraformaldehyde for 1 day at 4° C., dehydrated with ethanol, embedded in paraffin (Tissue-Tek TEC 5; Sakura) and sectioned into 5 μm thickness slices. The sectioned samples were then stained with cresyl violet and examined using a light microscope (Leica). All sectioned retinal samples were photographed under the same magnification (Ilford Pan-F plus film, 50 ASA). The thickness of a retina was determined by sectioning retinal samples at the same distance (1.5 mm from the disc). To evaluate the degree of the injury caused by retinal ischemia, the whole retinal thickness [from the inner limiting membrane (ILM) to the retinal pigment epithelium (RPE) layer] and the inner retinal thickness [from the ILM to the inner nuclear layer (INL)] were measured. All the measurements were carried out by an expert who was unaware of the experimental conditions used to treat the samples.

VEGF = test: Western blot of ischemic retina, VEGF to β-actin ratio; format: in vivo, rat; conditions: n=6, mean±S.E
Protocol: Emodin was purchased from Sigma-Aldrich (E7881; 90%; storage at 2-8° C.; from Frangula bark; St. Louis, Mo., United States). Drug administration for different procedures, namely ERG, fluorogold RGC labelling, cresyl violet retinal staining and Western blot assays, were described in Tables 3 to 6. Vehicle or emodin (5 μL) was administered via an intravitreous injection route so that these agents were then able to be directly diffused to the target. Emodin was dissolved in vehicle (DMSO:distilled water=1:3). The defined final cellular concentrations of administered drug were 0.25 or 0.5 μM, which were achieved after 40 times dilution from the stock concentrations, namely 10 or 20 μM, based on an arbitrary definition of the vitreous volume as 200 μL. To test a wider range of dose-response, 4 μM of emodin was thus added in the animal experiments. […] Denatured proteins were then obtained using lysis buffer (mammalian protein extraction reagent; […]), the samples were then sonicated and quantified to give equivalent amounts of 30 μg/30 μl/well. […] Finally, the PVDF membranes were then developed using an enhanced chemiluminescent analysis system ([…]) and scanned using an imager (Amersham Imager; LifeSciences); the amount of each protein was quantified according to scanning densitometry.

[2] = Emo10+IR: pre-ischemic intravitreous 10 μM emodin
[3] = Emo20+IR: pre-ischemic intravitreous 20 μM emodin
[4] = IR+Emo20: post-ischemic intravitreous 20 μM emodin

Cc1cc(O)c2c(c1)C(=O)c1cc(O)cc(O)c1C2=O [emodin, 6-methyl-1,3,8-trihydroxyanthraquinone]
inner retina thickness ([1]; Emo4+IR: pre-ischemic intravitreous 4 μM emodin, Sham 79.90, Vehicle+IR 20.97): 38.60±1.01 μm | whole retina thickness ([1]; Emo4+IR: pre-ischemic intravitreous 4 μM emodin, Sham 186.50, Vehicle+IR 71.80): 87.40±0.60 μm | inner retina thickness [1, 2]: 70.05±0.60 μm | whole retina thickness [1, 2]: 153.20±1.48 μm | inner retina thickness [1, 3]: 70.65±2.06 μm | whole retina thickness [1, 3]: 170.10±0.10 μm | inner retina thickness [1, 4]: 69.65±0.68 μm | whole retina thickness [1, 4]: 125.45±1.68 μm | ratio of VEGF to β-actin protein level (VEGF; Emo10+IR: pre-ischemic intravitreous 10 μM emodin, Sham normalized to 1, Vehicle+IR 7.67): 3.99±2.86 | ratio of VEGF to β-actin protein level (VEGF; Emo20+IR: pre-ischemic intravitreous 20 μM emodin, P=0.03 vs Vehicle+IR, Sham normalized to 1): 1.23±0.44
